{"source": "patent EP4722219A1", "about": "(Gan & Lee Pharmaceuticals Co., Ltd., priority 2023, dated 2024)", "format_in_all_cases": "cell-based", "key": {"MCF-7 cells": {"system": "MCF-7 cells", "experiment": "Inhibition of cell proliferation in MCF-7 cells (CCK-8)", "conditions": "Homo sapiens, MCF7, 144 h, MCF-7 cell proliferation, 6 days treatment", "experimental": "Test Example 3 Inhibitory effect of PROTAC compounds provided by the present invention on cell proliferation in MCF-7 cells\nThe complete culture medium required for MCF-7 cells (source ATCC) is DMEM (gibco, Product number: 11995-065) basal culture medium containing 10% fetal bovine serum. MCF-7 cells were seeded in 96-well plates at a density of 800 cells/well, and different concentrations of PROTAC compounds 1-55 provided in the examples of the present invention and positive control sample ARV-471 (source: Inokai) were prepared to treat the cells and incubated at 37 °C, 5% CO2 cell culture incubator for 6 days. According to the manufacturer's instructions, cell viability was detected using a CCK-8 kit (Beyotime, Product number: C0040). The IC50 of each PROTAC compound after treating for 6 days was calculated using GraphPadPrism software based on the inhibition rate. Table 3 Inhibition IC50 value of MCF-7 cell proliferation by PROTAC compounds of the present invention and positive control sample"}, "T-47D cells": {"system": "T-47D cells", "experiment": "Inhibition of cell proliferation in T-47D cells (CCK-8)", "conditions": "6 days treatment, CCK-8 cell viability", "experimental": "Test Example 2 Inhibitory effect of PROTAC compounds provided by the present invention on cell proliferation in T-47D cells\nThe complete culture medium required for T-47D cells is 1640 (ATCC, Product number: A10491-01) basal culture medium containing 10% fetal bovine serum. T-47D cells were seeded in 96-well plates at a density of 3,000 cells/well, and different concentrations of PROTAC compounds 1-55 provided in the examples of the present invention and positive control sample ARV-471 (source: Inokai) were prepared to treat the cells and incubated at 37 °C, 5% CO2 cell culture incubator for 6 days. According to the manufacturer's instructions, cell viability was detected using a CCK-8 kit (Beyotime, Product number: C0040). The IC50 of each compound after treating for 6 days was calculated using GraphPadPrism software based on the inhibition rate. Table 2 Inhibition IC50 value of T-47D cell proliferation by PROTAC compounds provided by the present invention and positive control sample"}, "AR protein [1]": {"molecular_target": "T1, AR protein (Homo sapiens, UniProt P10275, T878A)", "T1 construct": "host or cells: LNCaP FGC", "T1 sequence (P10275 1-920 T878A)": "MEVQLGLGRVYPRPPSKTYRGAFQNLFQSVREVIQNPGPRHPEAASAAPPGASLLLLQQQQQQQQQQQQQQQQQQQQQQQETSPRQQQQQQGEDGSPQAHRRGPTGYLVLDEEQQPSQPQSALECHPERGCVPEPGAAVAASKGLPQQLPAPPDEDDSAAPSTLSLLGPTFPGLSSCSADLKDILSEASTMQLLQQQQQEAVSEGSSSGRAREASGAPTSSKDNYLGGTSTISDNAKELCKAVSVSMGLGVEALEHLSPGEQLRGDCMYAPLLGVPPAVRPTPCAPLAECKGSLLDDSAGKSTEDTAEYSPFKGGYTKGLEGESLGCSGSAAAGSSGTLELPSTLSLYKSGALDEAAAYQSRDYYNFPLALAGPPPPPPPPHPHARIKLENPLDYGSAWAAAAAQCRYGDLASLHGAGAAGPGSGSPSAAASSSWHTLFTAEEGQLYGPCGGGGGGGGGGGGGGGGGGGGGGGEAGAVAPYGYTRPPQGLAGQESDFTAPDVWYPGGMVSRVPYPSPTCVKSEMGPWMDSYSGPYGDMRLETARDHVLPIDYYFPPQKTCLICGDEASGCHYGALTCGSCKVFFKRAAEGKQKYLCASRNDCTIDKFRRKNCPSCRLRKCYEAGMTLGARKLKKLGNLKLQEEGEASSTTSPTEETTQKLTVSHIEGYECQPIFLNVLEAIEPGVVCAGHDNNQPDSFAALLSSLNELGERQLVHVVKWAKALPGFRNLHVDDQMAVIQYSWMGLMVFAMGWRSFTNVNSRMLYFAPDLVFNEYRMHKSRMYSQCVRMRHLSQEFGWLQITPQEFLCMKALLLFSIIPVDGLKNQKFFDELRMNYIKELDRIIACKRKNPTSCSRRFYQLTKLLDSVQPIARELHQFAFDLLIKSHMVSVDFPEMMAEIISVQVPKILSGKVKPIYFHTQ", "experiment": "AR protein degradation in LNCaP cells (Western blot)", "conditions": "8 hours", "experimental": "At the same time, the corresponding solvent control was set and cultured for 8 hours. After 8 hours of culture, the culture medium was removed, the cells were washed with PBS, and RIPA lysis buffer containing 1% Protease Inhibitor Cocktail was added. After lysis and centrifugation, the total protein extract was obtained, and the protein concentration in the extract was detected by BCA method. Protein electrophoresis was performed using SDS-PAGE, and then the protein was transferred to a PVDF (Millipore Sigma catalog number PSRP010R5) membrane at a constant voltage of 100V for 60 minutes. The PVDF membrane was placed in a 5% milk powder 1 ×TBST solution and blocked at room temperature for 1 hour. […] The primary antibody solution was discarded and the PVDF membrane was washed with 1×TBST for 5 minutes each time, for three times. […] The secondary antibody solution was discarded and the PVDF membrane was washed with 1 ×TBST for 5 minutes each time, for three times. A dual-color infrared laser imaging system (Licor catalog number Odyssey CLX) was used for Western membrane imaging. The Image Studio software was used to analyze the grayscale of the bands. GAPDH protein bands were also detected for each sample as the reference. The AR protein degradation rate of the compound and the positive control sample was calculated based on the grayscale of the protein bands."}, "AR protein [2]": {"molecular_target": "T2, AR protein (Homo sapiens, UniProt P10275)", "T2 construct": "host or cells: VCaP", "T2 sequence (P10275 1-920)": "T1 sequence (P10275 1-920 T878A) with A878T", "experiment": "AR protein degradation in VCaP cells (Western blot)", "conditions": "8h", "experimental": "The degradation activity of the compounds disclosed in the present invention on AR protein in VCaP cells (cell source: ATCC)\nThe AR-positive human prostate cancer cells VCaP cultured in DMEM (GiBco catalog number 11995-065) containing 10% FBS (Hyclone catalog number SH30406.05) was inoculated in a six-well microplate (Thermo catalog number 140675) at a concentration of 3×10^5 cells/ well. After being cultured overnight in a carbon dioxide incubator (ESCO), the prepared compound of the present invention and the positive control sample ARV-766 (Annaiji) solution of different concentrations were added at a volume of 1 µL/well to make the final concentrations of the compound and the positive control sample reach 5nM and 0.5nM, respectively. At the same time, the corresponding solvent control was set and cultured for 8h. After 8h of culture, the culture medium was removed, and the cells were washed with PBS. RIPA lysis buffer containing 1% Protease Inhibitor Cocktail was added. After lysis and centrifugation, a total protein extract was obtained, and the protein concentration in the extract was detected by BCA method. Protein electrophoresis was performed using SDS-PAGE, and then the protein was transferred to a PVDF (Millipore Sigma catalog number PSRP010R5) membrane at a constant voltage of 100V for 60min. The PVDF membrane was placed in a 5% milk powder 1×TBST solution and blocked at room temperature for 1h. The primary antibody solution (Anti-Androgen receptor, Cell Signaling Technology catalog number: 5153S; 1:2000 dilution) was prepared and was incubated at 4°C overnight. The primary antibody solution was discarded and the PVDF membrane was washed with 1×TBST for 5 minutes each time, for three times. The secondary antibody solution (Thermo catalog number SA5-35571; 1:7500 dilution) was prepared and was incubated at room temperature for 1 hour. The secondary antibody solution was discarded and the PVDF membrane was washed with 1×TBST for 5 minutes each time, for three times. A dual-color infrared laser imaging system (Licor catalog number Odyssey CLX) was used for Western membrane imaging. Image Studio software was used to analyze the grayscale of the bands. GAPDH protein bands were also detected for each sample as the reference. The AR protein degradation rate of the compound and the positive control sample was calculated based on the grayscale of the protein bands.\nTable 7 Degradation rate of AR protein in VCaP cells by the compounds disclosed in the present invention"}}, "note": "Substitutions are numbered along the chain they refer to.", "data": [{"smiles": "O=C1CCC(N2Cc3c(ccc4c3OCC43CCC4(CCN(C(=O)C5CCN(c6ccc([C@@H]7c8ccc(O)cc8CC[C@@H]7c7ccccc7)cc6)CC5)CC4)CC3)C2=O)C(=O)N1", "note": "(stereo partly drawn) [ER-P-76, 3-(1\"-(1-(4-((1R,2S)-6-hydroxy-2-phenyl-1,2,3,4-tetrahydronaphthalen-1-yl)phenyl)piperidine-4-carbonyl)-6-oxo-6,8-dihydro-2H,7H-dipyridole[furo[2,3-e]isoindole-3,1'-cyclohexane-4',4\"-piperidin]-7-yl)piperidine-2,6-dione]", "values": [{"measurement": "IC50", "setting": "MCF-7 cells", "value": "> 100000", "unit": "nM"}, {"measurement": "IC50", "setting": "T-47D cells; Homo sapiens, T47D, 144 h", "value": 5.75, "unit": "nM"}]}, {"smiles": "Cn1c(=O)n(C2CCC(=O)NC2=O)c2ccc3c(c21)C1(CCN(C2CCN(C(=O)C4CCN(c5ccc([C@@H]6c7ccc(O)cc7CC[C@@H]6c6ccccc6)cc5)CC4)CC2)CC1)CO3", "note": "(stereo partly drawn) [ER-P-77, 3-(1'-(1-(4-(((1R,2S)-6-hydroxy-2-phenyl-1,2,3,4-tetrahydronaphthalen-1-yl)phenyl)piperidine-4-carbonyl)piperidin-4-yl)-1-methyl-2-oxo-1,2-dihydro-3H,7H-spiro[benzofuro[4,5-d]imidazole-8,4'-piperidin]-3-yl)piperidine-2,6-dione]", "values": [{"measurement": "IC50", "setting": "MCF-7 cells", "value": 84.7, "unit": "nM"}, {"measurement": "IC50", "setting": "T-47D cells; Homo sapiens, T47D, 144 h", "value": 1.87, "unit": "nM"}]}, {"smiles": "Cn1c(=O)n(C2CCC(=O)NC2=O)c2ccc3c(c21)OCC31CCN(C(=O)CN2CCC3(CCN(c4ccc([C@@H]5c6ccc(O)cc6CC[C@@H]5c5ccccc5)cc4)CC3)C2)CC1", "note": "(stereo partly drawn) [ER-P-68, 3-(1'-(2-(8-(4-((1R,2S)-6-hydroxy-2-phenyl-1,2,3,4-tetrahydronaphthalen-1-yl)phenyl)-2,8-diazaspiro[4.5]decan-2-yl)acetyl)-1-methyl-2-oxo-1,2-dihydro-3H,7H-spiro[benzofuro[6,7-d]imidazole-6,4'-piperidin]-3-yl)piperidine-2,6-dione]", "values": [{"measurement": "IC50", "setting": "MCF-7 cells", "value": 8.27, "unit": "nM"}, {"measurement": "IC50", "setting": "T-47D cells; Homo sapiens, T47D, 144 h", "value": 1.18, "unit": "nM"}]}, {"smiles": "COc1cc(O[C@H]2CC[C@H](NC(=O)c3ccc(N4CCC5(CC4)CC(N4CCC6(CC4)COc4cc7c(cc46)n(C)c(=O)n7C4CCC(=O)NC4=O)C5)nn3)CC2)ccc1C#N", "note": "(some centres unmarked) [A-P-11]", "values": [{"measurement": "percent AR protein degradation at a fixed concentration at 0.01 µM", "setting": "AR protein [1]; 10 nM", "value": 76, "unit": "%"}, {"measurement": "percent AR protein degradation at a fixed concentration at 0.1 µM", "setting": "AR protein [1]; 100 nM", "value": 32, "unit": "%"}]}, {"smiles": "Cn1c(=O)n(C2CCC(=O)NC2=O)c2ccc3c(c21)OCC31CCN(CC2CC(OC3CCN(c4ccc([C@@H]5c6ccc(O)cc6CC[C@@H]5c5ccccc5)cc4)CC3)C2)CC1", "note": "(stereo partly drawn) [ER-P-80, 3-(1'-(((1S,3s)-3-((1-(4-((1R,2S)-6-hydroxy-2-phenyl-1,2,3,4-tetrahydronaphthalen-1-yl)phenyl)piperidin-4-yl)oxy)cyclobutyl)methyl)-1-methyl-2-oxo-1,2-dihydro-3H,7H-spiro[benzofuro[6,7-d]imidazole-6,4'-piperidin]-3-yl)piperidine-2,6-dione]", "values": [{"measurement": "IC50", "setting": "T-47D cells", "value": 0.9, "unit": "nM"}]}, {"smiles": "COc1cc(O[C@H]2C(C)(C)[C@H](NC(=O)c3ccc(N4CCC(CN5CCC6(CC5)COc5c6ccc6c5n(C)c(=O)n6C5CCC(=O)NC5=O)CC4)nn3)C2(C)C)ccc1C#N", "note": "(relative stereo) [A-P-27]", "values": [{"measurement": "Degradation rate of AR protein in VCaP cells", "setting": "AR protein [2]; 0.5 nM", "value": 78, "unit": "%"}, {"measurement": "Degradation rate of AR protein in VCaP cells", "setting": "AR protein [2]; 5 nM", "value": 80, "unit": "%"}, {"measurement": "Degradation of AR protein in LNCaP cells, 10 nM (%)", "setting": "AR protein [1]; 10 nM", "value": 43, "unit": "%"}, {"measurement": "Degradation of AR protein in LNCaP cells, 100 nM (%)", "setting": "AR protein [1]; 100 nM", "value": 43, "unit": "%"}]}, {"smiles": "O=C1CCC(Nc2ccc3c(c2)OCC32CCN(CC3CC(OC4CCN(c5ccc([C@@H]6c7ccc(O)cc7CC[C@@H]6c6ccccc6)cc5)CC4)C3)CC2)C(=O)N1", "note": "(stereo partly drawn) [ER-P-92, 3-((1'-(((1S,3s)-3-((1-(4-((1R,2S)-6-hydroxy-2-phenyl-1,2,3,4-tetrahydronaphthalen-1-yl)phenyl)piperidin-4-yl)oxy)cyclobutyl)methyl)-2H-spiro[benzofuran-3,4'-piperidin]-6-yl)amino)piperidine-2,6-dione]", "values": [{"measurement": "IC50", "setting": "T-47D cells", "value": 4.56, "unit": "nM"}]}]}
